# BindingDB's records for doi:10.1021/jm0613121 (Bar-Ilan University, 2007)
# Target: T1, Gag-Pol polyprotein [600-1029,C879S]/[600-1159,C879S] (Human immunodeficiency virus 1, UniProt P03366, C879S)
# T1 construct: 600-1029; 600-1159
# Assay: HIV-1 RT Assay
# Settings: not given
row,SMILES,IC50 [µM]
1,NC(=O)c1[nH]cnc1-c1cccc(-c2ccccc2)c1 [4-(3-Phenylphenyl)-1H-imidazole-5-carboxamide],> 312
2,"NC(=O)c1scnc1-c1cccc(-c2ccccc2)c1 [4-(3-phenylphenyl)-1,3-thiazole-5-carboxamide]",> 312
3,NC(=O)c1scnc1-c1cccc(I)c1 [4-(3-Iodophenyl)thiazole-5-carboxamide],> 312

# Same assay, conditions: pH 7.5; 37 °C
row,SMILES,IC50 [µM]
1,NC(=O)CC(=O)c1cccc(-c2ccccc2)c1 [3-Oxo-3-(3-phenylphenyl)propanamide],> 312
2,NC(=O)CC(=O)c1cccc(C(=O)c2ccccc2)c1 [3-(3-Benzoylphenyl)-3-oxopropanamide],> 312
3,N#CCC(=O)c1ccc(Cl)c(Br)c1 [3-(3-Bromo-4-chlorophenyl)-3-oxopropanenitrile],> 312
4,N#CCC(=O)c1cccc(I)c1 [3-(3-Iodophenyl)-3-oxopropanenitrile],> 312
5,NC(=O)CC(=O)c1cccc(Cl)c1 [3-(3-Chlorophenyl)-3-oxopropanamide],> 312
6,NC(=O)c1[nH]cnc1-c1cccc(C(=O)c2ccccc2)c1 [4-(3-Benzoylphenyl)-1H-imidazole-5-carboxamide],> 312
